According to PubChem BioAssay AID1963831 (Molecular Pharmacology Branch, DTP, NCI, 2024):

System: 889142-216-R-J1-PDC complex spheroid viability
Test: Anticancer human tumor 889142-216-R-J1-PDC patient-derived bladder carcinoma cell line growth inhibition [POLQ]
Settings: for IC50: curve of first compound; for viability, T/C: stronger effect = lower value
Experimental: Multicellular complex tumor spheroid response to Polymerase (POL) inhibitors (novobiocin, ART-558, RP6685) in combination with a variety of drugs and investigational agents in selected tumor cell lines
The POL inhibitors (novobiocin, ART-558, and RP6685) were evaluated both individually and in combination with standard of care and investigational anticancer small molecules within a complex spheroid model of solid tumors. . Complex spheroids include a stromal component modeled by human endothelial cells (HUVEC) and fibroblasts modeled by human mesenchymal stem cells (MSCs). The concentration ranges selected for each drug and investigational agent were based upon clinically achievable concentrations if the clinical Cmax of the agent was known.
Compounds. The drugs and investigational agents: novobiocin (NSC847541), ART-558 (NSC835418), RP-6685 (NSC848927), peposertib (NSC802822), ceralasertib (NSC780249), elimusertib (NSC800525), camonsertib (NSC841442), AZD-1390 (NSC803789), olaparib (NSC753686), talazoparib (NSC767125), rucaparib (NSC756644), sotorasib (NSC818433), MRTX-1133 (NSC836407), SN-38 (NSC673596), topotecan (NSC609699), epotoside (NSC141540), doxorubicin (NSC123127), gemcitabine (NSC613327), 5-fluorouracil (NSC19893), paclitaxel (NSC125973), vemurafenib (NSC761431), MSA-2 (NSC828583), SN-011 (NSC837082), adavosertib (NSC754352), prexasertib (NSC758257), carboplatin (NSC241240) and oxaliplatin (NSC266046), were obtained from the National Cancer Institute (NCI) Developmental Therapeutics Program Chemical Repository (21). The FDA-approved anticancer drug set is available from the Developmental Therapeutics Program at https://dtp.cancer.gov/organization/dscb/obtaining/. […] The stock solutions were prepared in dimethyl sulfoxide (DMSO, Sigma-Aldrich, St. Louis, MO, cat. D2650), except for the platinum compounds which were prepared in saline (Quality Biological, Gaithersburg, MD, cat. 114-055-101), at 800-fold the tested concentration and stored at -70 degrees C prior to their use. All drugs and investigational agents were tested over a range starting from a high concentration at or near the clinical Cmax and decreasing in half-log increments. If the clinical Cmax for an agent had not been determined, the highest concentration tested was 10 microM, except for SN-38, which was tested at a high concentration of 1 microM.
Cell Culture. All cells were maintained in an incubator at 37 degrees C and 5% CO2 with 95% humidity. The PDC lines were cultured according to standard operating procedures established by the NCI PDMR (https://pdmr.cancer.gov). Table 3 of the manuscript, lists the cell lines along with the number of the three cell types plated to form the mct-spheroids and media for tumor cell growth. After thawing, all PDC lines, except 997537-175-T-J1-PDC and 415267-285-R-J2-PDC, were cultured in Matrigel-coated flasks prepared with a working solution of 1X Ham's F-12 nutrient mix, without supplementation (Thermo Fisher Scientific, cat. 11765054), 100 U/mL penicillin-streptomycin (Thermo Fisher Scientific, cat. 15140122), and 2.5% Matrigel (Corning Inc., Corning, NY, cat. 354248) for the first three passages. The two PDC lines 997537-175-T-J1-PDC and 415267-285-R-J2-PDC were cultured on uncoated flasks. The 857933-349-R-J2-PDC line was cultured in 6C/Colon 1B media containing advanced DMEM/F-12 (Thermo Fisher Scientific, cat. 12634028), 10 mM HEPES (Thermo Fisher Scientific, cat. 15630080), 1X GlutaMAX supplement (Thermo Fisher Scientific, cat. 35050061), 0.1 mg/mL primocin (InvivoGen, San Diego, CA, cat. ant-pm-2), 10% defined fetal bovine serum, heat inactivated (HyClone Laboratories Inc., Logan, UT, cat. SH30070.03HI), 50% L-WRN conditioned media (ATCC, cat. CRL-3276), 1.25 mM N-Acetyl-L-cysteine (Sigma-Aldrich, cat. A9165), 10 mM nicotinamide (Sigma-Aldrich, cat. N0636), 1X B-27 supplement (Thermo Fisher Scientific, cat. 17504044), 1X N-2 supplement (Thermo Fisher Scientific, cat. […]

[1] = second compound 0.0316 µM, first compound 0.0316 µM
[2] = second compound 0.0316 µM, first compound 0.1 µM
[3] = second compound 0.1 µM, first compound 0.0316 µM
[4] = second compound 0.1 µM, first compound 0.1 µM
[5] = second compound 0.316 µM, first compound 0.0316 µM
[6] = second compound 0.316 µM, first compound 0.1 µM
[7] = second compound 1 µM, first compound 0.0316 µM
[8] = second compound 1 µM, first compound 0.1 µM
[9] = second compound 3.16 µM, first compound 0.0316 µM
[10] = second compound 3.16 µM, first compound 0.1 µM
[11] = second compound 10 µM, first compound 0.0316 µM
[12] = second compound 10 µM, first compound 0.1 µM
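Also: spheroids exposed to compounds for seven days.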
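For viability, T/C in this document: 100% = DMSO vehicle control viability.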

Compound CC[C@@]1(O)C(=O)OCc2c1cc1n(c2=O)Cc2cc3c(CN(C)C)c(O)ccc3nc2-1 + Nc1ccc(C#CCN(C(=O)Cc2ncc(C(F)(F)F)cc2C(F)(F)F)c2ccc(F)cc2)nn1 has an IC50 (second compound 0.0316 µM) greater than 0.1 µM, an IC50 (second compound 0.1 µM) greater than 0.1 µM and an IC50 (second compound 0.316 µM) greater than 0.1 µM. For the same compound, the IC50 (second compound 1 µM) was greater than 0.1 µM, the IC50 (second compound 3.16 µM) was greater than 0.1 µM and the IC50 (second compound 10 µM) was greater than 0.1 µM. It also gave a viability, T/C (second compound 0.0316 µM, first compound 0.000316 µM) of 101%, a viability, T/C (second compound 0.0316 µM, first compound 0.001 µM) of 78.3% and a viability, T/C (second compound 0.0316 µM, first compound 0.00316 µM) of 95.8%. It also gave a viability, T/C (second compound 0.0316 µM, first compound 0.01 µM) of 87.9%, a viability, T/C [1] of 67.5% and a viability, T/C [2] of 56.1%. The viability, T/C (second compound 0.1 µM, first compound 0.000316 µM) was 99.4%, the viability, T/C (second compound 0.1 µM, first compound 0.001 µM) was 89.4% and the viability, T/C (second compound 0.1 µM, first compound 0.00316 µM) was 91.3%. It also gave a viability, T/C (second compound 0.1 µM, first compound 0.01 µM) of 75.2%, a viability, T/C [3] of 59.7% and a viability, T/C [4] of 52.4%. The viability, T/C (second compound 0.316 µM, first compound 0.000316 µM) was 86.8%, the viability, T/C (second compound 0.316 µM, first compound 0.001 µM) was 77.6% and the viability, T/C (second compound 0.316 µM, first compound 0.00316 µM) was 116%. The viability, T/C (second compound 0.316 µM, first compound 0.01 µM) was 94.8%, the viability, T/C [5] was 54.7% and the viability, T/C [6] was 59.2%. The viability, T/C (second compound 1 µM, first compound 0.000316 µM) was 86.9%, the viability, T/C (second compound 1 µM, first compound 0.001 µM) was 67.1% and the viability, T/C (second compound 1 µM, first compound 0.00316 µM) was 109%. It also gave a viability, T/C (second compound 1 µM, first compound 0.01 µM) of 70.7%, a viability, T/C [7] of 63.1% and a viability, T/C [8] of 55.9%. It also gave a viability, T/C (second compound 3.16 µM, first compound 0.000316 µM) of 87.1%, a viability, T/C (second compound 3.16 µM, first compound 0.001 µM) of 74.4% and a viability, T/C (second compound 3.16 µM, first compound 0.00316 µM) of 109%. It also gave a viability, T/C (second compound 3.16 µM, first compound 0.01 µM) of 89.4%, a viability, T/C [9] of 57.4% and a viability, T/C [10] of 52.6%. It also gave a viability, T/C (second compound 10 µM, first compound 0.000316 µM) of 121%, a viability, T/C (second compound 10 µM, first compound 0.001 µM) of 135% and a viability, T/C (second compound 10 µM, first compound 0.00316 µM) of 86.2%. For the same compound, the viability, T/C (second compound 10 µM, first compound 0.01 µM) was 72.6%, the viability, T/C [11] was 70.5% and the viability, T/C [12] was 53.4%.

COc1cc(C2c3cc4c(cc3C(OC3OC5COC(C)OC5C(O)C3O)C3COC(=O)C23)OCO4)cc(OC)c1O (centres undefined) + Nc1ccc(C#CCN(C(=O)Cc2ncc(C(F)(F)F)cc2C(F)(F)F)c2ccc(F)cc2)nn1 showed an IC50 (second compound 0.0316 µM) greater than 10 µM, an IC50 (second compound 0.1 µM) greater than 10 µM and an IC50 (second compound 0.316 µM) greater than 10 µM. It also gave an IC50 (second compound 1 µM) of 8.97 µM, an IC50 (second compound 3.16 µM) greater than 10 µM and an IC50 (second compound 10 µM) greater than 10 µM. For the same compound, the viability, T/C [1] was 90.8%, the viability, T/C [2] was 92.8% and the viability, T/C (second compound 0.0316 µM, first compound 0.316 µM) was 86.8%. It also gave a viability, T/C (second compound 0.0316 µM, first compound 1 µM) of 60.5%, a viability, T/C (second compound 0.0316 µM, first compound 3.16 µM) of 96.8% and a viability, T/C (second compound 0.0316 µM, first compound 10 µM) of 62.9%. For the same compound, the viability, T/C [3] was 99.5%, the viability, T/C [4] was 101% and the viability, T/C (second compound 0.1 µM, first compound 0.316 µM) was 69.3%. The viability, T/C (second compound 0.1 µM, first compound 1 µM) was 60.2%, the viability, T/C (second compound 0.1 µM, first compound 3.16 µM) was 84.5% and the viability, T/C (second compound 0.1 µM, first compound 10 µM) was 61.5%. For the same compound, the viability, T/C [5] was 116%, the viability, T/C [6] was 86.2% and the viability, T/C (second compound 0.316 µM, first compound 0.316 µM) was 78.8%. It also gave a viability, T/C (second compound 0.316 µM, first compound 1 µM) of 69%, a viability, T/C (second compound 0.316 µM, first compound 3.16 µM) of 79.2% and a viability, T/C (second compound 0.316 µM, first compound 10 µM) of 54.4%. The viability, T/C [7] was 121%, the viability, T/C [8] was 95.6% and the viability, T/C (second compound 1 µM, first compound 0.316 µM) was 80.5%. It also gave a viability, T/C (second compound 1 µM, first compound 1 µM) of 58.2%, a viability, T/C (second compound 1 µM, first compound 3.16 µM) of 66% and a viability, T/C (second compound 1 µM, first compound 10 µM) of 56.9%. For the same compound, the viability, T/C [9] was 104%, the viability, T/C [10] was 78.2% and the viability, T/C (second compound 3.16 µM, first compound 0.316 µM) was 72.2%. For the same compound, the viability, T/C (second compound 3.16 µM, first compound 1 µM) was 59.8%, the viability, T/C (second compound 3.16 µM, first compound 3.16 µM) was 68.1% and the viability, T/C (second compound 3.16 µM, first compound 10 µM) was 61%. The viability, T/C [11] was 86.7%, the viability, T/C [12] was 104% and the viability, T/C (second compound 10 µM, first compound 0.316 µM) was 79.9%. For the same compound, the viability, T/C (second compound 10 µM, first compound 1 µM) was 74.3%, the viability, T/C (second compound 10 µM, first compound 3.16 µM) was 76.4% and the viability, T/C (second compound 10 µM, first compound 10 µM) was 62.9%.
